# Data: patent US12312350B2, “Compounds for inhibiting NLRP3 and uses thereof” (Ventus Therapeutics U.S., Inc., priority 2021, dated 2025)
# Biological target: NLRP3 (Homo sapiens, UniProt Q96P20)
# Assay: Human whole blood (hWB) NLRP3 Assay
# Method: Heparin lithium coated tubes were used to collect blood from volunteers. Blood samples were distributed on 96 well plates using 90 μl per well. […] Human whole blood was drawn from healthy volunteers after obtaining written informed consent.
# NLRP3, sequence (Q96P20 whole entry): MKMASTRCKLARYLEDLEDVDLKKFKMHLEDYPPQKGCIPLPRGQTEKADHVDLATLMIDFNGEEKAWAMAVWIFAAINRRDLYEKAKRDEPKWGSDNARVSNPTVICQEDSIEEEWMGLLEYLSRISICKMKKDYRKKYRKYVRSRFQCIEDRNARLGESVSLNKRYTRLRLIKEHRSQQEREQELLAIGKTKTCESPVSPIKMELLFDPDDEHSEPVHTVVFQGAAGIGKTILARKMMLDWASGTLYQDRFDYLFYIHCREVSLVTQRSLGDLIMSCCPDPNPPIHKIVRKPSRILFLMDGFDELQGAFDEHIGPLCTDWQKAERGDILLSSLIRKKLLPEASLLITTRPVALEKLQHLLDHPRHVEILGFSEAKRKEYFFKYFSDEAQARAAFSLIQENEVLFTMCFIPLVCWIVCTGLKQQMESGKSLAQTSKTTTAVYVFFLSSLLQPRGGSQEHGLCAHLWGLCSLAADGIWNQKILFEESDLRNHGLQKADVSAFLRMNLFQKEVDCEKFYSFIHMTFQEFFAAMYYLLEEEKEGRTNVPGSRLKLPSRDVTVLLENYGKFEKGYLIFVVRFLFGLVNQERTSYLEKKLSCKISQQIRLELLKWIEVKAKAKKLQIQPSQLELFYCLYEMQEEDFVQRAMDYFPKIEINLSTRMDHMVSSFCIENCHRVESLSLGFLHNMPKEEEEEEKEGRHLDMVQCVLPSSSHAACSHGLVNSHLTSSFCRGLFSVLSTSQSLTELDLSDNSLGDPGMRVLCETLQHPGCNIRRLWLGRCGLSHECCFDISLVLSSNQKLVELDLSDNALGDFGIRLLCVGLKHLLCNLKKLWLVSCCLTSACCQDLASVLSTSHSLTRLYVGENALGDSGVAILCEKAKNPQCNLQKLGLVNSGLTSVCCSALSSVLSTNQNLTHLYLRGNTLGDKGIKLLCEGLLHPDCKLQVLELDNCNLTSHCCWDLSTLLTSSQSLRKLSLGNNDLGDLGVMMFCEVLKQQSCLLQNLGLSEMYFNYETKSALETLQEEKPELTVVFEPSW
compound,measurement,value
Clc1ccc(-c2nnc(NCC3CCCO3)c3ccncc23)cc1 (stereo not shown),IC50,42 µM
